According to patent US11028090B2 (Dong Wha Pharm. Co., Ltd., priority 2017, dated 2021):
Read-outs that look alike come from different tables or passages of the source.

What was measured:
[1] = target: BRD4 (BD1+BD2) bromodomain (Homo sapiens (Human), UniProt O60885); test: BRD4 binding inhibition (AlphaScreen, GST-BRD4 vs tetraacetylated histone H4 peptide)
Summary of the method: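 AlphaScreen read after 30 min dark incubation at room temperature with glutathione acceptor/streptavidin donor beads (10 μg/ml each). The beads were added to compound plus 100 nM biotin-H4 (K5,8,12,16-acetyl) peptide and 100 nM GST-BRD4 BD1+BD2 in pH 7.4 HEPES/Tween/BSA/DTT buffer.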

[2] = test system: acute myelogenous leukemia cells (MV-4-11 cells); test: Cytotoxicity to acute myelogenous leukemia cells (MV-4-11 cells), CCK-8; conditions: Homo sapiens, MV4-11, 72 h
Description: The following experiment was performed to evaluate the cytotoxicity of [1,2,4]triazolo[4,3-a]quinoxaline derivative according to the present invention to acute myelogenous leukemia cells (MV-4-11 cells).
Acute myelogenous leukemia cells (MV-4-11 cells) were distributed in a 96 well plate at the density of 5×10^3 cells/well. The plated cells were treated with the compounds of the present invention dissolved in DMSO at the different concentrations ranging from 0.01 μM to 10 μM. 72 hours later, the activities of the compounds were determined using CCK-8 reagent.

[3] = GST-BRD4 (BD1+BD2) / biotinylated acetyl-histone H4 (Lys5,8,12,16) peptide, read-out: IC50, BRD4 binding inhibition
[4] = GST-BRD4 (BD1+BD2) vs biotinylated acetyl-histone H4 peptide, AlphaScreen, read-out: BRD4 IC50
[5] = read-out: IC50, cytotoxicity against acute myelogenous leukemia cells
[6] = read-out: MV-4-11 Cytotoxicity IC50

Structure (SMILES)	IC50 [1, 3] [nM]	IC50 [1, 4] [nM]	IC50 [2, 5] [nM]	IC50 [2, 6] [nM]
Cc1nnc2c(NCCCCNC(=O)CC(C)C)nc3cc(F)c(F)cc3n12 [Example 37, N-[4-(7,8-difluoro-1-methyl-[1,2,4]triazolo[4,3-a]quinoxaline-4-ylamino)-butyl]-3-methyl-butyramide]	≤ 10	8	≤ 200	121
Cc1nnc2c(NCCCCNC(=O)CC(C)C)nc3cc(N)ccc3n12 [Example 245, N-[4-(7-amino-1-methyl-[1,2,4]triazolo[4,3-a]quinoxaline-4-ylamino)-butyl]-3-methyl-butyramide]	≤ 50	32		361
Cc1nnc2c(NCCCCNC(=O)CC(C)C)nc3cc(N4CCc5sccc5C4)ccc3n12 [Example 528, N-{4-[7-(6,7-dihydro-4H-thiano[3,2-c]pyridine-5-yl)-1-methyl-[1,2,4]triazolo[4,3-a]quinoxaline-4-ylamino]-butyl}-3-methyl-butyramide]	≤ 50	15		203
COc1cc2nc(NCCCCNC(=O)CCC3CCCC3)c3nnc(C)n3c2cc1OC [Example 81, 3-cyclopentyl-N-[4-(7,8-dimethoxy-1-methyl-[1,2,4]triazolo[4,3-a]quinoxaline-4-ylamino)-butyl]-propionamide]	≤ 10	10	≤ 200	100
COCCOc1cc2nc(NCCCCNC(=O)C(C)(C)C)c3nnc(C)n3c2cc1OCCOC [Example 164, N-{4-[7,8-bis-(2-methoxy-ethoxy)-1-methyl-[1,2,4]triazolo[4,3-a]quinoxaline-4-ylamino]-butyl}-2,2-dimethyl-propionamide]	≤ 50	37		570
COc1cc2nc(NCCCCNC(=O)c3ccccn3)c3nnc(C)n3c2cc1OC [Example 105, pyridine-2-carboxylic acid-[4-(7,8-dimethoxy-1-methyl-[1,2,4]triazolo[4,3-a]quinoxaline-4-ylamino)-butyl]-amide]		60		650
CCC(C)CNC(=O)CCCCNc1nc2cc(OC)c(OC)cc2n2c(C)nnc12 (stereo not drawn) [Example 649, 5-(7,8-dimethoxy-1-methyl-[1,2,4]triazolo[4,3-a]quinoxaline-4-ylamino)-pentanoic acid-(2-methyl-butyl)-amide]	≤ 50	23	≤ 200	160
COc1cc(C)c2c(c1)nc(NCCCCNC(=O)CC(C)C)c1nnc(C)n12 [Example 458, [4-(7-methoxy-1,9-dimethyl-[1,2,4]triazolo[4,3-a]quinoxaline-4-ylamino)-butyl]-3-methyl-butyramide]	≤ 10			530
COc1cc2nc(NCCCCNC(=O)Cc3ccco3)c3nnc(C)n3c2cc1OC [Example 85, N-[4-(7,8-dimethoxy-1-methyl-[1,2,4]triazolo[4,3-a]quinoxaline-4-ylamino)-butyl]-2-furan-2-yl-acetamide]	≤ 50	27	≤ 200	50
COc1ccc2c(c1)nc(NCCCCNC(=O)[C@@H](Br)C(C)C)c1nnc(C)n12 [Example 302, 2-(S)-bromo-N-[4-(7-methoxy-1-methyl-[1,2,4]triazolo[4,3-a]quinoxaline-4-ylamino)-butyl]-3-methyl-butyramide]	≤ 10	8	≤ 200	66
COc1cc2nc(NCCCCNC(=O)CC(C)C)c3nnc(C)n3c2cc1NC(=O)CC(C)C [Example 562, N-{4-[7-methoxy-1-methyl-8-(3-methyl-butyrylamino)-[1,2,4]triazolo[4,3-a]quinoxaline-4-ylamino]-butyl}-3-methyl-butyramide]	≤ 50	32		375
COCCOc1ccc2c(c1)nc(NCCCCNC(=O)Cc1cccs1)c1nnc(C)n12 [Example 406, N-{4-[7-(2-methoxy-ethoxy)-1-methyl-[1,2,4]triazolo[4,3-a]quinoxaline-4-ylamino]-butyl}-2-thiophene-2-yl-acetamide]	≤ 50	14	≤ 200	19
Cc1nnc2c(NCCCCNC(=O)C(C)(C)C)nc3cc4c(cc3n12)OCCO4 [Example 180, 2,2-dimethyl-N-[4-(1-methyl-8,9-dihydro-7,10-dioxa-2,3,5,11b-tetraaza-cyclopenta[a]anthracene-4-ylamino)-butyl]-propionamide]	≤ 50	17	≤ 200	190
COCCOc1cc2nc(NCCCCNC(=O)NC(C)(C)C)c3nnc(C)n3c2cc1OCCOC [Example 169, 1-{4-[7,8-bis-(2-methoxy-ethoxy)-1-methyl-[1,2,4]triazolo[4,3-a]quinoxaline-4-ylamino]-butyl}-3-tert-butyl-urea]	≤ 50	41		860
COc1cc2nc(-c3ccc4c(c3)nc(NCCCCNC(=O)CC(C)C)c3nnc(C)n34)[nH]c2cc1OC [Example 227, N-{4-[7-(5,6-dimethoxy-1H-benzoimidazole-2-yl)-1-methyl-[1,2,4]triazolo[4,3-a]quinoxaline-4-ylamino]-butyl}-3-methyl-butyramide]	≤ 10	1	≤ 200	39
Cc1nnc2c(NCCCCNC(=O)c3ccccc3Cl)nc3ccc(OC(F)(F)F)cc3n12 [Example 268, 2-chloro-N-[4-(1-methyl-8-trifluoromethoxy-[1,2,4]triazolo[4,3-a]quinoxaline-4-ylamino)-butyl]-benzamide]	≤ 50	35		500
Cc1nnc2c(NCCCCNC(=O)[C@@H](NC(=O)OC(C)C)C(C)C)nc3cc(N4C[C@@H](C)O[C@@H](C)C4)ccc3n12 [Example 520, (S)-(1-{4-[7-(2,6-dimethyl-morpholine-4-yl)-1-methyl-[1,2,4]triazolo[4,3-a]quinoxaline-4-ylamino]-butylcarbamoyl}-2-methyl-propyl)-carbamic acid isopropylester]	≤ 50	24	≤ 200	174
Cc1nnc2c(NCCCCNC(=O)CC(C)C)nc3cc(OCCCC#N)ccc3n12 [Example 342, N-{4-[7-(3-cyano-propoxy)-1-methyl-[1,2,4]triazolo[4,3-a]quinoxaline-4-ylamino]-butyl}-3-methyl-butyramide]		56	≤ 200	28
Cc1nnc2c(NCCCCNC(=O)OC(C)(C)C)nc3cc(N4C[C@@H](C)O[C@@H](C)C4)ccc3n12 [Example 508, {4-[7-(2,6-dimethyl-morphonyl-4-yl)-1-methyl-[1,2,4]triazolo[4,3-a]quinoxaline-4-ylamino]-butyl}-carbamic acid-tert-butylester]	≤ 50	29		575
Cc1nnc2c(NCCCCNC(=O)[C@@H](NC(=O)OCC(C)C)C(C)C)nc3cc(N4C[C@@H](C)O[C@@H](C)C4)ccc3n12 [Example 515, (S)-(1-{4-[7-(2,6-dimethyl-morpholine-4-yl)-1-methyl-[1,2,4]triazolo[4,3-a]quinoxaline-4-ylamino]-butylcarbamoyl}-2-methyl-propyl)-carbamic acid isobutylester]	≤ 50		≤ 200	90
CCCOC(=O)NCCCCNc1nc2cc(-c3nc4ccccc4n3C)ccc2n2c(C)nnc12 [Example 228, {4-[1-methyl-7-(1-methyl-1H-benzoimidazole-2-yl)-[1,2,4]triazolo[4,3-a]quinoxaline-4-ylamino]-butyl}-carbamic acid propylester]	≤ 10	7	≤ 200	140
Cc1nnc2c(NCCCCNC(=O)OC(C)(C)C)nc3cc4c(cc3n12)OCCO4 [Example 178, [4-(1-methyl-8,9-dihydro-7,10-dioxa-2,3,5,11b-tetraaza-cyclopenta[a]anthracene-4-ylamino)-butyl]-carbamic acid-tert-butylester]	≤ 50	17		440
CCOc1ccc2c(c1)nc(NCCCCNC(=O)OC(C)C)c1nnc(C)n12 [Example 443, [4-(7-ethoxy-1-methyl-[1,2,4]triazolo[4,3-a]quinoxaline-4-ylamino)-butyl]-carbamic acid isopropylester]	≤ 50	13	≤ 200	120
COc1ccc2c(c1)nc(NCCCCNC(=O)CCC(C)C)c1nnc(C)n12 [Example 288, 4-methyl-pentanoic acid-[4-(7-methoxy-1-methyl-[1,2,4]triazolo[4,3-a]quinoxaline-4-ylamino)-butyl]-amide]	≤ 50	15	≤ 200	34
COc1cc(C)c2nc(NCCCCNC(=O)OC(C)(C)C)c3nnc(C)n3c2c1 [Example 158, [4-(8-methoxy-1,6-dimethyl-[1,2,4]triazolo[4,3-a]quinoxaline-4-ylamino)-butyl]-carbamic acid-tert-butylester]	≤ 50	18		610
Cc1nnc2c(NCCCCNC(=O)OC(C)(C)C)nc3cc(-c4nc5ccccc5n4C)ccc3n12 [Example 220, {4-[1-methyl-7-(1-methyl-1H-benzoimidazole-2-yl)-[1,2,4]triazolo[4,3-a]quinoxaline-4-ylamino]-butyl}-carbamic acid-tert-butylester]	≤ 10			350
